Measurements published in the NIST ThermoML archive (doi:10.1016/j.fluid.2011.06.012).
Numbers after ± are expanded uncertainties.

Legend:
[1] = Molar enthalpy of transition or fusion; conditions: DSC

CCCC[N+]1(C)CCCC1.N#C[S-] [1-butyl-1-methylpyrrolidinium thiocyanate]
viscosity (298.15 K, 101.33 kPa, Liquid, Cone and plate viscometry): 109.46 ± 2.2 mPa·s | mass density (298.15 K, 101.33 kPa, Liquid, Vibrating tube method): 1024.77 ± 2.2 kg/m3 | Normal melting temperature (Crystal 1, DTA): 22.2 ± 0.9 °C | Triple point temperature (Crystal 2, DTA): 245.3 ± 0.4 K | Molar enthalpy of transition or fusion ([1]; Crystal 1): 0.491 ± 0.043 kcal/mol | Molar enthalpy of transition or fusion ([1]; Crystal 2): 2.07 ± 0.0645 kcal/mol
